Patent US20100260680A1, “NOVEL BONE MASS INCREASING AGENT” (ORIENTAL YEAST CO., LTD., priority 2007, published 2010)
Bridges are numbered along the chain shown (N, C = ends). Where no end group is shown, it is not given here.

How the values were obtained:
C57BL/6CrjCrlj mice = test: Peptide D administration to mice: bone density (SXA), pQCT and μCT analysis of femur; type: in vivo, mouse
Protocol: A synthetic peptide was used for experiments. Synthetic peptide D is a cyclic peptide comprising the amino acid sequence represented by SEQ ID NO: 7, which consists of 9 amino acids and contains two cysteine residues binding to each other via a disulfide bond. […] The synthetic peptide was dissolved in 10% DMSO (Nacalai)/PBS to a concentration of 1 mg/ml.
Subcutaneous administration of peptide D was carried out in a dose of 10 mg/kg at 8:00, 14:00, and 20:00 (three times daily) for 5 days. 5% DMSO/PBS was administered to the control group. Mice were dissected 12 hour after the completion of administration for 5 days and subjected to exsanguination. Thereafter, the femur and the tibia were collected from each mouse. The whole blood of each mouse was left at room temperature for 1 hour and then centrifuged under conditions of 5000 rpm and 4° C. for 5 min. The serum was collected in a new tube. The femur and the tibia of each mouse were fixed with cold 70% ethanol.
Each femur fixed with ethanol was subjected to single energy X-ray absorptiometry (SXA) analysis (DCS-600EX-IIIR DXA for animals, ALOKA) for determination of bone density, bone mineral content, and bone surface area. The full length of each bone was divided into 20 regions. The bone density for each region was determined and actions of the peptide in each region were analyzed.
Bone structure analysis was carried out by peripheral quantitative computed tomography (hereinafter abbreviated as pQCT) and micro-computed tomography (hereinafter abbreviated as μCT). Scan-Xmate-A080 (Comscantecno Co., Ltd.) was used for μCT and XCT-Research SA+(Stratec Medizintechnik GmbH) was used for pQCT. The dedicated software (3D-BON (RATOC)) was used for preparation of three-dimensional structural image and trabecular structure analysis with the use of μCT data. In addition, for analysis by pQCT, a region with a bone density of 395 mg/cm^3 or less was determined to be cancellous bone and a region with a bone density of 690 mg/cm^3 or more was determined to be cortical bone.

MAP kinase p38 = test: Western blotting of p38 phosphorylation in MC3T3-E1 cells; type: cell-based, mouse; conditions: 200 μM peptide D
Protocol: MC3T3-E1 cells mixed with 10% FBS+αMEM (SIGMA) were seeded on a 6-well plate (7.5×10^4 cells/well). […] The medium was removed at the respective time points shown in the relevant figures. PBS was added to the cells, and the cells were collected with a scraper (Falcon). A cell pellet was obtained via centrifugation at 1200 rpm for 5 min at 4° C. RIPA buffer (100 μL) was added to the collected pellet, for dissolution of the cellular membrane. Further, the resultant was centrifuged under conditions of 14500 rpm for 25 min at 4° C. The supernatant was collected as a cell extract. A portion of the cell extract was used for quantification of the protein concentration with the use of a BCA protein assay kit (PIERCE). For SDS-PAGE, a sample buffer in an amount that was ¼ that of the cell extract (Fermentas) was added thereto, followed by heating at 95° C. for 5 min. The prepared sample was applied in an amount of 7.5 or 10 μg to 10% polyacrylamide gel (BioRad), followed by electrophoresis at 170 V for 1 hour. After electrophoresis, the electrophoresed sample was transferred to a PVDF membrane (Millipore) at 80 mA for 40 min. The membrane was shaken in a blocking solution (Nacalai) at room temperature for 1 hour and then a primary antibody was added thereto, followed by shaking at room temperature for 1 hour at 4° C. for 12 hours. […]

mouse tibia = test: RT-PCR of osteogenesis markers in tibia of mice given peptide D; type: in vivo; conditions: peptide D acetate 10 mg/kg s.c. three times daily for 5 days
Protocol: Synthetic peptide D subjected to substitution with an acetate was used in this experiment. The synthetic peptide D was dissolved in PBS at a concentration of 1 mg/mL. PBS was administered to a control group.
Subcutaneous administration of synthetic peptide D in the form of acetate was carried out in a dose of 10 mg/kg at 8:00, 14:00, and 20:00 (three times daily) for 5 days. PBS was administered to the control group. Mice were dissected 12 hour after the completion of administration for 5 days and subjected to exsanguination. Thereafter, the femur and the tibia were collected from each mouse. The whole blood of each mouse was left at room temperature for 1 hour and then centrifuged under conditions of 5000 rpm and 4° C. for 5 min. The serum was collected in a new tube. The femur and the tibia of each mouse were fixed with cold 70% ethanol. Muscles and the like were carefully removed from each tibia. Then, each tibia was washed with PBS and cut into 1-mm fragments with scissors, followed by freezing with liquid nitrogen. […]
After cDNA synthesis, as in the case of Example 23, PCR was performed using primers specific to mouse alkaline phosphatase (mALP), mouse type I collagen αI chain (mCollagen αI), and mouse osteocalcin (mOC). […] The obtained images were analyzed with a CSAnalyzer and standardized based on the GAPDH expression levels. […]

[1] = μCT trabecular structure measurement

Q: With “peptide D: cyclic peptide of SEQ ID NO: 7, 9 amino acids, two cysteine residues bound via a disulfide bond; binds to RANKL (YCWSQYLCY; disulfide 2-8 (inferred))” as the substance, how does the “bone mineral content (SXA, femur)” value (C57BL/6CrjCrlj mice; 10 mg/kg s.c. 3 times daily for 5 days) read?
A: increase in bone mineral content

Q: And the “bone density (SXA, femur)” value (C57BL/6CrjCrlj mice; 10 mg/kg s.c. 3 times daily for 5 days, p<0.05 vs control group)?
A: significant increase in bone density

Q: What about the “bone density of each region (SXA20 partition analysis)” value (C57BL/6CrjCrlj mice; 6th to 9th regions from the distal end of the femur, p<0.05 vs control group) of the same substance?
A: significant increase in bone density

Q: And the “bone resorption inhibition actions” value (C57BL/6CrjCrlj mice; based on trabecular structure measurement by μCT)?
A: weak actions

Q: What about the “intimal circumference of the cortical bone” value (C57BL/6CrjCrlj mice; region 5 mm away from the distal end of the femur) of the same substance?
A: shortened

Q: What about the “cortical bone density (pQCT)” value (C57BL/6CrjCrlj mice; region 5 mm away from the distal end of the femur, p<0.05 vs control group) of the same substance?
A: significant increase in cortical bone density

Q: And the “cancellous bone content (μCT)” value (C57BL/6CrjCrlj mice; site 2 mm away from the distal end of the femur)?
A: increased

Q: What about the “BV/TV of the cancellous bone” value (C57BL/6CrjCrlj mice; [1]) of the same substance?
A: increased

Q: What about the “trabecular width of the cancellous bone” value (C57BL/6CrjCrlj mice; [1]) of the same substance?
A: increased

Q: And the p38 phosphorylation (MAP kinase p38; 12 hours after the addition)?
A: significant p38 phosphorylation

Q: And the p38 phosphorylation (MAP kinase p38; within a short period of time after the addition)?
A: no significant changes

Q: And the “expression levels of mALP, mCollagen αI and mOC in tibia” value (mouse tibia)?
A: increase in the expression level of each factor
